# Assay results as given in patent US11634451B2, “Method for the site-specific enzymatic labelling of nucleic acids in vitro by incorporation of unnatural nucleotides” (The Scripps Research Institute, priority 2013, dated 2023).
# Marks after values point to notes of the source that are not given here.
# Assays:
# Assay type in all cases: biochemical
# OneTaq polymerase = assay: PCR-based screen and amplification of DNA containing unnatural base pairs, OneTaq (Example 1); settings: OneTaq
# Description: (§1) The triphosphates of the 6 group were prepared from the previously reported nucleosides (Kubelka, T., Slavetinska, L., Eigner, V. and Hocek, M. Synthesis of 2,6-disubstituted pyridin-3-yl C-2′-deoxyribonucleosides through chemoselective transformations of bromo-chloropyridine C-nucleosides. Org. Biomol. Chem., 11, 4702-4718) according to Ludwig, J. and Eckstein, F. Rapid and efficient synthesis of nucleoside 5′-0-(1-thiotriphosphates), 5′-triphosphates and 2′,3′-cyclophosphorothioates using 2-chloro-4H-1,3,2-benzodioxaphosphorin-4-one. J. Org. Chem., 54, 631-635. The purity of all other triphosphates was confirmed by MALDI-TOF and UV-VIS. Taq and OneTaq DNA polymerases were purchased from New England Biolabs (Ipswich, Mass.). A mixture of dNTPs was purchased from Fermentas (Glen Burnie, Md.). SYBR Green I Nucleic Acid Gel Stain (10,000×) was purchased from Life Technologies (Carlsbad, Calif.). The synthesis of the DNA templates, D8 (Malyshev, D. A., Dhami, K., Quach, H. T., Lavergne, T., Ordoukhanian, P., Torkamani, A. and Romesberg, F. E. Efficient and sequence-independent replication of DNA containing a third base pair establishes a functional six-letter genetic alphabet. Proc. Natl. Acad. Sci. USA, 109, 12005-12010), used for screening rounds 1-5, and D6 (Malyshev, D. A., Seo, Y. J., Ordoukhanian, P. and Romesberg, F. E. PCR with an expanded genetic alphabet. J. Am. Chem. Soc., 131, 14620-14621), used for all other amplifications, was described previously. Sanger sequencing was carried out as described previously (Malyshev, D. A., Dhami, K., Quach, H. T., Lavergne, T., Ordoukhanian, P., Torkamani, A. and Romesberg, F. E. Efficient and sequence-independent replication of DNA containing a third base pair establishes a functional six-letter genetic alphabet. Proc. Natl. Acad. Sci. USA, 109, 12005-12010). Raw Sanger sequencing traces were used to determine the percent retention of the unnatural base pairs, which was converted to fidelity per doubling, as described (Malyshev, D. A., Dhami, K., Quach, H. T., Lavergne, T., Ordoukhanian, P., Torkamani, A. and Romesberg, F. E. Efficient and sequence-independent replication of DNA containing a third base pair establishes a functional six-letter genetic alphabet. Proc. Natl. Acad. Sci. USA, 109, 12005-12010; Malyshev, D. A., Seo, Y. J., Ordoukhanian, P. and Romesberg, F. E. PCR with an expanded genetic alphabet. J. Am. Chem. Soc., 131, 14620-14621).
# (§2) All PCR amplifications were performed in a CFX Connect Real-Time PCR Detection System (Bio-Rad), in a total volume of 25 μL using the following conditions: 1× OneTaq reaction buffer, 0.5× Sybr Green I, MgSO4 adjusted to 4.0 mM, 0.2 mM of each dNTP, 50 μM of each unnatural triphosphate, […] of Primer1 and Primer2 (See Table 2), and 0.02 U/μl of the DNA polymerase. Other conditions specific for each round of screening are described in Table 3. Amplified products were purified using DNA Clean and Concentrator-5 spin columns from Zymo Research (Irvine, Calif.). After purification, the PCR products were sequenced on a 3730 DNA Analyzer (Applied Biosystems) to determine the retention of the unnatural base pair as described below. Fidelity was characterized from unnatural base pair (UBP) retention as determined by sequencing with Primer1 on a 3730 DNA Analyzer (Applied Biosystems).
# (§3) Specific PCR assay conditions. PCR with the most promising UBPs was carried out with the conditions as described in Table 3. PCR products were further purified on […] gels, followed by single band excision and subsequent clean up using the Zymo Research Zymoclean Gel DNA Recovery Kit. After elution with 20 μl of water, the DNA concentration was measured using fluorescent dye binding (Quant-iT dsDNA HS Assay kit, Life Technologies), and purified amplicons were sequenced in triplicate with both Primer1 and Primer2 to determine UBP retention and thus amplification fidelity. […]
# Taq polymerase [1] = biological target: T1, Taq polymerase (Thermus aquaticus, UniProt P19821); assay: PCR-based screen and amplification of DNA containing unnatural base pairs, Taq (Example 1); settings: Taq, 10 s Extension, 52 cycles, D6 template
# T1 construct: purchased New England Biolabs (Ipswich, Mass.)
# T1 sequence (P19821 whole entry): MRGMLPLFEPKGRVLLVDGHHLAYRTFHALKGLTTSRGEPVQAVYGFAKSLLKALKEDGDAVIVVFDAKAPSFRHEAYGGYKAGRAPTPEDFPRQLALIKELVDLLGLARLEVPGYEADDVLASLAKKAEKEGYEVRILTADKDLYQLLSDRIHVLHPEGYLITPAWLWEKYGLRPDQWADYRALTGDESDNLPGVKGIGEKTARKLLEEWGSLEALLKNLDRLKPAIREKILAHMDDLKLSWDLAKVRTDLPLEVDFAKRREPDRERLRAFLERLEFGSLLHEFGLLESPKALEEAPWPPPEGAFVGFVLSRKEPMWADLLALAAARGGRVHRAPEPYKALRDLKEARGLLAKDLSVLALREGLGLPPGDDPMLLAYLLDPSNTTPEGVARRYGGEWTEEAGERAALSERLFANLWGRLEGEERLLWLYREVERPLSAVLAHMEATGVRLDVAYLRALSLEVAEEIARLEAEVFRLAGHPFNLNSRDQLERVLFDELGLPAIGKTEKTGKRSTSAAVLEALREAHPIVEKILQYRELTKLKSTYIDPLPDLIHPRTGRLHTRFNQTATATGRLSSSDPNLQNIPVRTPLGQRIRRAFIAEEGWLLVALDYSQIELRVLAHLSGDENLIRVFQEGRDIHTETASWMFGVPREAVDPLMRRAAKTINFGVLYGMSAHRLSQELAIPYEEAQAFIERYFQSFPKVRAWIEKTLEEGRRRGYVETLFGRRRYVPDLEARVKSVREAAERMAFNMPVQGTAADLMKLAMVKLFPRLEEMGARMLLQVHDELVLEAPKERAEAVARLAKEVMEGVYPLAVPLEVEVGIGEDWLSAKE
# Description: as §1, §2, §3
# OneTaq = assay: PCR amplification assay to determine fidelity, OneTaq (Example 3)
# Description: (§4) PCR assay. PCR amplifications were performed in a total volume of 25 μL and with conditions specific for each assay as described in Table 9. After amplification, a 5 μL aliquot was analyzed on a 6% non-denaturing PAGE gel ran along with 50 bp ladder (Life Technologies) to confirm amplicon size. The remaining solution was purified by spin-column (DNA Clean and Concentrator-5; Zymo Research, Irvine, Calif.), followed by 4% agarose gel, recovered with Zymoclean Gel DNA Recovery Kit (Zymo Research), quantified by fluorescent dye binding (Quant-iT dsDNA HS Assay kit, Life Technologies), and sequenced on a 3730 DNA Analyzer (Applied Biosystems). Fidelity was determined as the average % retention of the unnatural base pair per doubling as described below.
# (§5) Determination of fidelity. The percent retention of an unnatural base pair (F) was measured using raw sequencing data and normalized to fidelities per doubling. Briefly, the presence of an unnatural nucleotide leads to a sharp termination of the sequencing profile, while mutation to a natural nucleotide results in “readthrough”. The extent of the “read-through” is thus inversely correlated with the retention of the unnatural base pair. To use the sequencing data as a quantitative measurement of PCR fidelity, we performed calibration experiments in the range of 50-100% retention of the unnatural base pair. Therefore, low retention (<50%) and high “read-through” make the quantification inaccurate.
# (§6) Quantification of the high retention (>50%) was performed by adjusting the start and stop points for the Sequencing Analysis software (Applied Biosystems) and then determining the average signal intensity individually for each channel (A, C, G and T) for peaks within those defined points (35-45 nucleotides in length) before (section L) and S36 after (section R) the unnatural nucleotide. The R/L ratio was normalized using sequencing calibration plots to account for both noise in the sequencing chromatograms and the read-through in the control samples. […]
# Taq polymerase [2] = biological target: T1, Taq polymerase; assay: PCR amplification assay to determine fidelity, Taq (Example 3)
# Description: as §4, §5, §6
# [3] = biological target: T2, Klenow fragment of E. coli DNA polymerase I (Escherichia coli, UniProt P00582); assay: Presteady-state kinetics: incorporation of unnatural triphosphate opposite dNaM and extension; settings: 2 μM dCTP, 10 s, dXTPs paired with dNaM; for % Incorporation: 40 nM unnatural triphosphate; for % Extension: 10 μM unnatural triphosphate
# T2 construct: the Klenow fragment of E. coli DNA polymerase I
# T2 sequence (P00582 324-928): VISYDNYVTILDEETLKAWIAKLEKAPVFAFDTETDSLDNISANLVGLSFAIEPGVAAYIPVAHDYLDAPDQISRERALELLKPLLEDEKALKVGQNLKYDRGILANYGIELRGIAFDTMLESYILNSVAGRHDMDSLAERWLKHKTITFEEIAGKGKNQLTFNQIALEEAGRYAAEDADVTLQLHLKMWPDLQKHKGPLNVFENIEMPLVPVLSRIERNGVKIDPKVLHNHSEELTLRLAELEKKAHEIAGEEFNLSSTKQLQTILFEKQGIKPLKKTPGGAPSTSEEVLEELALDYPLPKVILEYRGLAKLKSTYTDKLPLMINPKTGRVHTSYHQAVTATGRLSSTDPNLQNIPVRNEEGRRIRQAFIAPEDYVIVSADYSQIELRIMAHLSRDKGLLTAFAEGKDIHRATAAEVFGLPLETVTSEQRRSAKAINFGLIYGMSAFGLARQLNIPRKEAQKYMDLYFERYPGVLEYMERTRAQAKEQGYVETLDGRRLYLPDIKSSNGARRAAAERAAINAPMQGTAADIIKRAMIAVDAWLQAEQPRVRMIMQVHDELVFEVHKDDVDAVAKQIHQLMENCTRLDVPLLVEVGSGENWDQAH
# Description: Exemplary methods for analyzing unnatural base pair synthesis efficiency (insertion of an unnatural nucleobase opposite its partner in a template) and extension (continued primer elongation) are provided herein. One or both of the nucleobases in an unnatural base pair, in various embodiments, may be a linker-derivatized unnatural nucleobase. One method uses a presteady-state assay. The assay is based on determining, under a fixed set of conditions, the amount of a primer (e.g. 23-mer) that is extended by addition of the unnatural nucleotide opposite its complementary nucleotide in a template (e.g., 45-mer) by a polymerase (e.g., the Klenow fragment of E. coli DNA polymerase I). In this assay, the efficiency of unnatural base pair synthesis is characterized by measuring the percent incorporation (% inc) at a given concentration of the unnatural and next correct triphosphate, for example using a ratio such as [24-mer+25-mer]/[23-mer+24-mer+25-mer]. In this assay, the efficiency of extension is characterized by measuring the percent extension (% ext) at a given concentration of the next correct nucleotide and saturating concentrations of unnatural nucleotide, for example using a ratio [25-mer]/[24-mer+25-mer]. Results from an exemplary presteady-state assay are shown in Table 1, wherein the unnatural triphosphate is 5SICS, FPT1, TPT1, TPT2, TPT3, FTPT3, TPT3^PA, or 5SICS^PA. In some embodiments, the percent incorporation of an unnatural nucleobase is at least 60%, 65%, 70%, 71%, 72%, 73%, 74%, 75%, 76%, 77%, 78%, 79%, 80%, 81%, 82%, 83%, 84%, 85%, 86%, 87%, 88%, 89%, 90%, 91%, 92%, 93%, 94%, 95%, 96%, 97%, 98%, or 99%. In some embodiments, the percent extension of a next correct nucleotide following insertion of an unnatural nucleobase is at least 30%, 31%, 32%, 33%, 34%, 35%, 36%, 37%, 38%, 39%, 40%, 41%, 42%, 43%, 44%, 45%, 46%, 47%, 48%, 49%, 50%, 55%, 60%, 65%, 70%, 75%, 80%, 85%, 90% or greater. In some embodiments, synthesis efficiency is increased by derivatizing the unnatural nucleobase. For example, by the addition of a linker, a protected linker, and/or a linker conjugated to a cargo molecule. As another example, derivatization includes atom substitutions, additions, or deletions. In some embodiments, percent extension is increased by derivatizing the unnatural nucleobase. Derivatization of an unnatural nucleobase, in some instances, increases by at least 1-2 orders of magnitude the efficiency of insertion of the nucleotide complementary to the base pair in the template. This increase in efficiency may be due to an increase kcat and a decreased KM.
# ^aIncorporation assay conditions: 40 nM unnatural triphosphate, […], 10s. ^bExtension assay conditions: […], 2 μM dCTP, 10 s. dXTPs are paired with dNaM.
# [4] = 1 min Extension, 52 cycles, D6 template
# [5] = OneTaq, standard PCR conditions
Structure (SMILES),"Amplification, ×10^12 (OneTaq polymerase; [4])","Fidelity per Doubling, % (OneTaq polymerase; [4]) [%]","Retention, % (OneTaq polymerase; [4]) [%]","Amplification, ×10^12 (Taq polymerase [1])","Fidelity per Doubling, % (Taq polymerase [1])","Retention, % (Taq polymerase [1])",% Incorporation [3] [%],% Extension [3] [%],other results
COc1cc2ccccc2cc1[C@H]1C[C@H](O)[C@@H](COP(=O)(O)OP(=O)(O)OP(=O)(O)O)O1.O=P(O)(O)OP(=O)(O)OP(=O)(O)OC[C@H]1O[C@@H](n2ccc3ccsc3c2=S)C[C@@H]1O [TPT3-NaM],8.3 ×10^12,99.79 ± 0.03,91.2 ± 1.3,5.8 ×10^12,99.66 ± 0.01%,86.5 ± 0.5%,–,–,"Fidelity, % (OneTaq polymerase; 16 cycles, 1 min extension): 99.92 ± 0.11%; Retention, % (OneTaq polymerase; 16 cycles, 1 min extension): 99.23 ± 1.12%; Amplification (OneTaq polymerase; 16 cycles, 1 min extension, -^a = no amplification was detected): 1004; Fidelity, % (OneTaq; OneTaq PCR (48 cycles), D6 template, dXTP with dNaMTP): > 99.98%; amplification efficiency relative to DNA containing just the natural base pairs (OneTaq; [5]): 4 fold lower; error rate (OneTaq; [5]): 10^−4 per nucleotide; Fidelity, % (Taq polymerase [2]; Taq PCR (20 cycles), D6 template, dXTP with dNaMTP): 99.7%; amplification efficiency relative to a natural base pair (Taq polymerase [2]; Taq polymerase): 2.5 fold lower; error rate (Taq polymerase [2]; Taq polymerase): 10^−3"
Cc1cc2c(=S)n([C@H]3C[C@H](O)[C@@H](COP(=O)(O)OP(=O)(O)OP(=O)(O)O)O3)ccc2s1 [TPT1],–,–,–,–,–,–,28.7 ± 0.5,8.8 ± 0.2,–
Cc1cc2ccn([C@H]3C[C@H](O)[C@@H](COP(=O)(O)OP(=O)(O)OP(=O)(O)O)O3)c(=S)c2s1 [TPT2],–,–,–,–,–,–,65.7 ± 0.5,34.5 ± 0.5,–
COc1cc2ccccc2cc1[C@H]1C[C@H](O)[C@@H](COP(=O)(O)OP(=O)(O)OP(=O)(O)O)O1.O=P(O)(O)OP(=O)(O)OP(=O)(O)OC[C@H]1O[C@@H](n2cc(F)c3ccsc3c2=S)C[C@@H]1O [FTPT3-NaM],7.0 ×10^12,99.76 ± 0.06,90 ± 2,3.7 ×10^12,99.76 ± 0.15%,91 ± 6%,–,–,–
Cc1cc2c(=S)n([C@H]3C[C@H](O)[C@@H](COP(=O)(O)OP(=O)(O)OP(=O)(O)O)O3)ccc2o1 [FPT1],–,–,–,–,–,–,7.2 ± 0.2,32.0 ± 1.5,–
"COc1cc2ccccc2cc1[C@H]1C[C@H](O)[C@@H](COP(=O)(O)OP(=O)(O)OP(=O)(O)O)O1.Cc1ccc2c(=S)n([C@H]3C[C@H](O)[C@@H](COP(=O)(O)OP(=O)(O)OP(=O)(O)O)O3)ccc2c1 [5SICS-NaM, reference compound]",8.1 ×10^12,99.00 ± 0.02,77.1 ± 0.7,9.3 ×10^12,<85^b %,<50^b %,–,–,–
O=P(O)(O)OP(=O)(O)OP(=O)(O)OC[C@H]1O[C@@H](n2cc(F)c3ccsc3c2=S)C[C@@H]1O [FTPT3],–,–,–,–,–,–,66.3 ± 0.5,33.8 ± 0.2,–
